Data published in patent EP4578856A1, “HETEROCYCLIC COMPOUND” (Ubience Inc., priority 2022, dated 2024).

Assays:
[1] = target: T1, FAK protein (Homo sapiens, UniProt Q05397); experiment: Degradation inducing activity of FAK protein in PA-1 cells, Western blotting (Simple Western JESS); assay type: cell-based; parameters: endogenous in cells; host or cells: PA-1 (ATCC CRL-1572); details: at 10 µM, 24 hours
Protocol: In vitro degradation inducing activity of FAK protein of compounds of Examples was evaluated by Western Blotting (WB).
By a test compound, 10 mM DMSO solution was prepared, which was used as a 10 µM test compound solution. Further, the solution was diluted 10-fold with DMSO to prepare a 1 mM solution, which was used as a 1 µM test compound solution.
PA-1 cells (ATCC: CRL-1572, Lot: 70055709) were cultured in Eagle's Minimum Essential Medium supplemented with 10% FBS and 1% Penicillin/Streptomycin. The PA-1 cells seeded in a 24 well plate at 200,000 cells/well/1 mL were cultured for 24 hours, and then 1 µL of DMSO or a test compound solution was added thereto and treatment was performed for 24 hours. Cells were harvested and lysed for 20 minutes on ice using RIPA lysis buffer (Sigma, Cat#R0278) supplemented with protease inhibitor cocktail (Sigma, Cat#P8340; Roche, Cat#P11873580001), and phosphatase inhibitor cocktail (Sigma, Cat#P5726, P0044). The lysate was sonicated (15 seconds, amplitude 30%, 1 cycle) and then centrifuged at 12500 rpm for 15 minutes at 4°C. The protein concentration was determined by BCA assay kit (Thermo Fisher Scientific, Cat#23225).
The western blotting was performed using Simple Western JESS (protein simple). A cell lysis sample (protein amount; about 2 µg) was loaded on a plate of Simple Western JESS, and the expression level of […] was detected using a 12-230 kDa Wes Separation Module (Protein simple, Cat#SM-WO04), an Anti-Rabbit Detection Module for Wes (Protein simple, Cat#DM-001), and a Total Protein Detection Module for Wes (Protein simple, Cat#DM-TP01). As the primary antibody, a material obtained by diluting FAK Rabbit mAb (Cell Signaling Technology, Cat#3285) at 1:100 was used, and as the secondary antibody, a material obtained by diluting HRP-labeled anti-rabbit IgG antibody (Cell Signaling Technology, Cat#7074S) at 1:250 was used. The expression level of the target protein was standardized using the total protein amount loaded as a reference. The standardized expression level data of the control (DMSO) was taken as 100%, and the degradation rate (%) was calculated from the average standardized expression level data of the test compounds (compounds of Examples 109 to 128). All analysis steps, such as data detection and analysis, are fully automated.
Target sequence in this assay (Q05397 whole entry): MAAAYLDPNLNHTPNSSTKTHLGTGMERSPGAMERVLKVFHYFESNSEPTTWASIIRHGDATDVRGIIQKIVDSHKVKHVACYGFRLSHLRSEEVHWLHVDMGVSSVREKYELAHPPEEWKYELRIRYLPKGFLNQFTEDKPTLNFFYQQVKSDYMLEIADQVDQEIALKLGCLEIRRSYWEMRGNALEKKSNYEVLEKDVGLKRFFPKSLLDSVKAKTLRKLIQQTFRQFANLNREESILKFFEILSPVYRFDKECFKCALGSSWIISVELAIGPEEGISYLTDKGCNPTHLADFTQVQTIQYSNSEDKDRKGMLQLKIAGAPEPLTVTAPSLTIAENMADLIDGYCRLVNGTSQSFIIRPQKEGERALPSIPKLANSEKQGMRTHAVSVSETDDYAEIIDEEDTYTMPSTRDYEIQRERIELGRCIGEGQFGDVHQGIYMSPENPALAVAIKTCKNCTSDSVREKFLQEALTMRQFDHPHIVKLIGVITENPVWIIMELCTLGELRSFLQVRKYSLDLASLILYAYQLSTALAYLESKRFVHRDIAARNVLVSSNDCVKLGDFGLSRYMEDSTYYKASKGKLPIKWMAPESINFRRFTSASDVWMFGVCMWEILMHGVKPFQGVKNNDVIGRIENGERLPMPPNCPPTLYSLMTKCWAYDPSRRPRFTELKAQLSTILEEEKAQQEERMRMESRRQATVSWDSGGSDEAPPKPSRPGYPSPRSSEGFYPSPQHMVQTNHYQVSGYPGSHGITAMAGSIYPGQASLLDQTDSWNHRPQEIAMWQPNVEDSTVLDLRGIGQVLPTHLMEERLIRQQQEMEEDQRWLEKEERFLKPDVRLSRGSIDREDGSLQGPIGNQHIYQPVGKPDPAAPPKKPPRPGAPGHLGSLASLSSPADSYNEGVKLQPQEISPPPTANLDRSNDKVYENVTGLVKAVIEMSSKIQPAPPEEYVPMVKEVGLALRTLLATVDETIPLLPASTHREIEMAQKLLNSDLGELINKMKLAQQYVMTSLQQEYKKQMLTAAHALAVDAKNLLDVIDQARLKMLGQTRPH

[2] = target: T1, FAK protein; experiment: FAK kinase inhibitory activity, mobility shift assay (MSA, Carna Biosciences); assay type: biochemical; parameters: GST (N); purchased Carna Biosciences, Inc; host or cells: baculovirus expression system; details: inhibition rate at 30 nM; reaction time 5 hours
Protocol: The FAK kinase inhibitory activity was measured using a mobility shift assay (MSA) provided by Carna Biosciences, Inc.
The test compound was dissolved in DMSO to prepare a 3 µM solution. The solution was further diluted 25 times with an assay buffer (20 mmol/L HEPES, 0.01%Triton (registered trademark) X-100, 1 mmol/L DTT, pH 7.5) to obtain a test compound solution.
Incomplete human FAK kinase was expressed by fusing 376 to 1052 amino acids of Accession No. NP_722560.1 with GST at the N-terminus using the baculovirus expression system. The GST-FAK was purified by glutathione sepharose chromatography. A 4-fold concentration substrate (Blk/Lyntide, 1000 nmol/L)/ATP (25 µmol/L)/metal solution (Mg, 5 mmol/L) was prepared with kit buffer (20 mmol/L HEPES, 0.01% Triton (registered trademark) X-100, 5 mmol/L DTT, pH 7.5). A 2-fold concentration kinase solution was prepared with assay buffer.
In the same manner as described in Test Example 1, tests and evaluation of inhibitory activity and data analysis were performed. The reaction time was set to 5 hours. […]
Target sequence in this assay (Q05397 376-1052): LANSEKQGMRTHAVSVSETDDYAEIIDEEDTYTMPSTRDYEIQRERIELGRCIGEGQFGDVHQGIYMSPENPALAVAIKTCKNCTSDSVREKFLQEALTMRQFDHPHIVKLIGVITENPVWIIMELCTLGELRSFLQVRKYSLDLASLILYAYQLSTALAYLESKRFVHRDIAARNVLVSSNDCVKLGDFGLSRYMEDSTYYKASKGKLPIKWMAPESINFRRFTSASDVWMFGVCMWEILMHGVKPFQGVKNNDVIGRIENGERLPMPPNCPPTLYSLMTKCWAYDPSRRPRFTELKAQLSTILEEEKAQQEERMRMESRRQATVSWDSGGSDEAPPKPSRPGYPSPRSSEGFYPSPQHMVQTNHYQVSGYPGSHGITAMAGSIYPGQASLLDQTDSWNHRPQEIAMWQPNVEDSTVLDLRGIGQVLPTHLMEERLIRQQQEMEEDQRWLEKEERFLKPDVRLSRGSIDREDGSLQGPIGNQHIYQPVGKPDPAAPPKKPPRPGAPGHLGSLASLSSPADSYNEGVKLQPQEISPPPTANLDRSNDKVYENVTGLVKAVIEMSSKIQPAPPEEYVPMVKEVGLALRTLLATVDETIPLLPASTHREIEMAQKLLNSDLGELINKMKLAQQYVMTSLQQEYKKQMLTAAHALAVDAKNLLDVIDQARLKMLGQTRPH

FAK protein degradation rate [1] | inhibition at 0.03 µM [2] | Structure (SMILES)
≥ 75% | ≥ 75% | C[C@@H]1CN(CC(=O)N2CC(C)(C)c3ncc(Cc4ccc(F)cc4)cc32)[C@@H](CN(C)CCOCCOCCOCC(=O)Nc2ccc(Nc3ncc(C(F)(F)F)c(NCc4cccc(S(C)(=O)=O)c4)n3)cc2)CN1 [Example 111, 1-((2R,5R)-1-(2-(6-(4-Fluorobenzyl)-3,3-dimethyl-2,3-dihydro-1H-pyrrolo[3,2-b]pyridin-1-yl)-2-oxoethyl)-5-methylpiperazin-2-yl)-2-methyl-N-(4-((4-((3-(methylsulfonyl)benzyl)amino)-5-(trifluoromethyl)pyrimidin-2-yl)amino)phenyl)-5,8,11-trioxa-2-azatridecan-13-amide]
≥ 75% | ≥ 75% | COC[C@H]1CN[C@H](C)CN1CC(=O)N1CC(C)(C)c2nc(CN3CCN(CCOCC(=O)Nc4ccc(Nc5ncc(C(F)(F)F)c(NCc6cccc(S(C)(=O)=O)c6)n5)cc4)CC3)c(Cc3ccc(F)cc3)cc21 [Example 115, 2-(2-(4-((6-(4-Fluorobenzyl)-1-(2-((2R,5R)-2-(methoxymethyl)-5-methylpiperazin-1-yl)acetyl)-3,3-dimethyl-2,3-dihydro-1H-pyrrolo[3,2-b]pyridin-5-yl)methyl)piperazin-1-yl)ethoxy)-N-(4-((4-((3-(methylsulfonyl)benzyl)amino)-5-(trifluoromethyl)pyrimidin-2-yl)amino)phenyl)acetamide]
